Columns and labels:
chicks = details: ICV administration to chicks; cited from earlier work
broiler breeders = experiment: 0.2% SMZ in grower diet during photoperiodic phase of broilerization (weeks 20-28, LD 14:10); assay type: in vivo, chicken; details: p≦0.05
From the text: FIGS. 7A and 7B depict bar graphs showing testis weight response (7A) and plasma LH (7B) resulting from the “photoperiodic” phase of broilerization plus 0.2% SMZ added to a grower diet from 20 to 28 weeks of age. Testes and blood were sampled at 28 weeks of age. Photoperiod=LD 14:10.
FIGS. 8A and 8B show plasma FSH (8A) and testosterone (8B) resulting from blood samples taken as described with respect to FIGS. 7A and 7B.

broiler chicks [1] = details: cited from earlier work
male broiler chicks [2] = experiment: 0.2% SMZ in starter ration during genetic selection phase of broilerization, from one week of age; assay type: in vivo, chicken
From the text: FIG. 4 depicts a bar graph showing the testes response resulting from the “genetic selection” phase of broilerization (see FIG. 1) plus 0.2% sulfamethazine (SMZ) added to a standard starter ration at one week of age.
FIGS. 5A and 5B depict graphs showing weekly levels of plasma luteinizing hormone (LH; 5A) and follicle stimulating hormone (FSH; 5B) in male broiler chicks fed a diet with 0.2% SMZ beginning at one week of age (*=p[…]0.05).
(§1) Blood samples were taken starting at day of SMZ administration and weekly following initiation of the treatment.

male broiler chicks [3] = experiment: Daily plasma LH immediately following dietary administration of 0.2% SMZ, from one week of age; assay type: in vivo, chicken; details: 0.2% SMZ diet from one week of age, FIG. 6
From the text: FIG. 6 depicts a graph showing daily levels of LH immediately following dietary administration of 0.2% SMZ, beginning at one week of age (*=p<0.05).
as §1

broiler chicks [4] = experiment: 0.2% SMZ in standard broiler ration, one to four weeks of age, continuous light versus LD 8:16; assay type: in vivo, chicken; details: 1-4 weeks of age
Experimental: FIG. 9 depicts a bar graph showing testes weight following 0.2% SMZ (1-4 weeks of age) in chicks exposed to LD 24:0 or LD 8:16.
In a further study using broiler chicks, SMZ at 0.2% was added to a standard broiler ration and fed to chicks from one to four weeks of age. One group was raised under continuous light while a second group was exposed to a photoperiod of LD 8:16. […] Although food intake was not measured in this experiment, body weight was taken at the beginning and end of the study. […] Sulfamethazine has a stimulatory effect upon testes growth when chicks are exposed to a long photoperiod. One possible interpretation is that SMZ appears to facilitate or amplify the stimulatory effect of long-day light on gonadal development in male chicks.

Row | Molecule | growth of the testes (chicks) | plasma LH (broiler breeders; 0.2% SMZ weeks 20-28, LD 14:10, blood at week 28, FIG. 7B) | plasma FSH (broiler breeders; 0.2% SMZ weeks 20-28, LD 14:10, blood at week 28, FIG. 8A) | plasma testosterone (broiler breeders; 0.2% SMZ weeks 20-28, LD 14:10, blood at week 28, FIG. 8B) | testis weight versus controls (broiler breeders; 0.2% SMZ weeks 20-28, LD 14:10, sampled at 28 weeks, FIG. 7A) | plasma gonadotropins (broiler chicks [1]; broiler chicks) | testes development (broiler chicks [1]; broiler chicks) | thyroid hormone (broiler chicks [1]; broiler chicks) | number of immuno-stained neuropeptide Y (NPY) neurons (broiler chicks [1]; broiler chicks, mediobasal hypothalamus and infundibular nucleus (IN)) | comb coloration (side effect) (broiler chicks [1]; chronic use of SMZ) | size of comb and testes (side effect) (broiler chicks [1]; chronic use of SMZ) | plasma luteinizing hormone (LH), weekly levels (male broiler chicks [2]; 0.2% SMZ diet from one week of age, weekly blood samples, FIG. 5A) | plasma follicle stimulating hormone (FSH), weekly levels (male broiler chicks [2]; 0.2% SMZ diet from one week of age, weekly blood samples, FIG. 5B) | rate of testes growth (male broiler chicks [2]; 0.2% SMZ in starter ration from one week of age, FIG. 4) | semen production (male broiler chicks [2]; 0.2% SMZ in starter ration, by nine weeks of age) | time until plasma LH was significantly elevated after consuming feed containing SMZ (male broiler chicks [3]) [h] | testes growth (broiler chicks [4]; continuous light (LD 24:0), p≦0.05, FIG. 9) | progonadal effects (testes weight) (broiler chicks [4]; short photoperiod LD 8:16, FIG. 9) | body weight, long-day versus short-day SMZ treated groups (broiler chicks [4]; weighed at beginning and end of study)
1 | neuropeptide Y [NPY] | stimulates | – | – | – | – | – | – | – | – | – | – | – | – | – | – | – | – | – | –
2 | Cc1cc(C)nc(NS(=O)(=O)c2ccc(N)cc2)n1 [SMZ, Sulfamethazine] | – | significantly elevated | significantly elevated | significantly elevated | significantly heavier than controls | increases | significantly increases | transiently suppresses | increases | marked red coloration of the comb | increased size of both comb and testes | significantly increased | significantly increased | significantly increased | produced viable semen | ≤ 48 | significantly elevated | markedly attenuated | No significant difference

Source: patent publication US6573254B1, “Method for the stimulation of sperm production and gonadal development in animals” (University of Maryland, priority 1998, dated 2003)
